Values of other authors as cited in US11384062B2 (CombiPhos Catalysts, Inc., priority 2017, dated 2022).
Like-named read-outs stand apart in the source and are kept apart here.

How the values were obtained:
[1] = tested on: CAPAN-1 pancreatic cancer cell xenograft; settings: 80 mg/kg qd, oral dosing, for two, three, or four weeks; cited from earlier work
[2] = tested on: human tumor xenografts, p53 wild type and p53 mutant; settings: variety of human tumor xenografts; cited from earlier work
PARP = settings: read-out: EC50, inhibition of PARP activity; whole cell assay; cited from earlier work
[3] = tested on: BRCA-1 deficient cancer xenograft; settings: cited from earlier work
recurrent ovarian cancer = settings: cited from earlier work
[4] = tested on: cancer cells with mutant BRCA-1 and BRCA-2; settings: read-out: CC50, inhibition of proliferation; cited from earlier work
[5] = dosed IV to bile duct cannulated rats; cited from earlier work

| SMILES | tumor growth inhibition [1] | effect on radiation response [2] | EC50 (PARP) | tumor growth ([3]; 80 mg/kg qd, oral dosing, after one or two weeks of treatment) | tumor growth ([3]; after four week treatment) | tumor growth ([3]; continuous daily dosing for three or four weeks) | median PFS (recurrent ovarian cancer; germline BRCA mutant patients) | median PFS (recurrent ovarian cancer; non-gBRCAmut cohort, HRD-positive tumors) | median PFS (recurrent ovarian cancer; overall non-germline BRCA mutant cohort) | discontinuation rate (recurrent ovarian cancer; patients) | treatment-emergent grade 3/4 adverse event: anemia (recurrent ovarian cancer; patients) | treatment-emergent grade 3/4 adverse event: neutropenia (recurrent ovarian cancer; patients) | treatment-emergent grade 3/4 adverse event: thrombocytopenia (recurrent ovarian cancer; patients) | CC50 [4] | recovered radioactivity as the parent drug [5] |
| --- | --- | --- | --- | --- | --- | --- | --- | --- | --- | --- | --- | --- | --- | --- | --- |
| NC(=O)c1cccc2cn(-c3ccc([C@@H]4CCCNC4)cc3)nc12 [niraparib, (S)-2-(4-(piperidin-3-yl)phenyl)-2H-indazole-7-carboxamide] | ~60% | strongly enhances the effect of radiation | […] | significant inhibition of tumor growth | complete and sustained regression | tumor shrinkage | 21.0 months | 12.9 months | 9.3 months | 14.7% | 24.8% | 11.2% | 28.3% | 10 to 100 nM | – |
| NC(=O)c1cccc2cn(-c3ccc([C@@H]4CCCNC4)cc3)nc12 [[^14C]-niraparib] | – | – | – | – | – | – | – | – | – | – | – | – | – | – | 45% |
